Source: patent US20140199420A1, “USES OF TOONA SINENSIS EXTRACT” (National Chung Hsing University, priority 2013, published 2014)

Tested on: lactic acid bacteria
Test: Lactic acid bacteria count of Taiwanese style sausage during storage
Conditions: second group, 25% sodium lactate; at 4 and 8 weeks storage at 15° C.
Protocol: The each group of sausages prepared from example 4 was packed in equal with vacuum package and stored at 15° C. for 8 weeks. Taking the amounts of sausages from the each group in 0, 1, 2, 3, 4 and 8 weeks were separately packed into sterile bags with sterile water and homogenized with a stomacher (Lab-Blender 400, England) for 30 second to have dilutions of the each group's sausages at different storage times for further microbiological analyzing.
The dilutions of the each group's sausage at different storage times were separately poured into a petri dish, added first layer of MRS agar into the each petri dish and then mixed completely. The second layer of MRS agar was poured on the first layer of MRS agar to produce an anaerobic condition then mixed and incubated at 37° C. for 48 hours in an anaerobic jar.

CC(O)C(=O)[O-].[Na+] (stereo not shown) [sodium lactate] was tested, and the “lactic acid bacteria count” value was 7.52 log CFU/g.
